Source: article PMC9228152, “New Amino Naphthoquinone Derivatives as Anti-Trypanosoma cruzi Agents Targeting Trypanothione Reductase” (Pharmaceutics, 2022)
Read-outs that look alike come from different tables or passages of the source. Each block holds one compound with its values, some of them ahead of it.

Experiments:
[1] = test system: NINOA strain of T. cruzi trypomastigotes; parameters: method as in PMID 31709599; conditions: cited from earlier work
J774 cells = test system: J774 cells; parameters: method as in PMID 31709599; conditions: cited from earlier work
[2] = test system: T. cruzi epimastigotes, INC-5 strain; assay: Growth inhibition of T. cruzi epimastigotes, INC-5 strain; assay type: cell-based, Trypanosoma cruzi; conditions: epimastigotes, INC-5 strain, five days, means of three independent experiments, read-out: Epi INC-5 IC50
Procedure: (§1) Epimastigotes from T. cruzi strains NINOA and INC-5 were cultured in BHI (brain heart infusion broth, 89%) axenic medium, as reported in [26], at an initial concentration of 1 × 10^6 parasites/mL, at 28 °C, supplemented with 10% foetal bovine serum and 1% sodium penicillin-streptomycin. […] On the last day, the absorbance of the cultures was measured and related to the control. All measurements were carried out in triplicate. No toxic effect was attributable to DMSO. Since parasite growth is exponential, the data were analysed according to a first order equation, and the respective growth constant (k), corresponding to the slope, was calculated for controls and parasites treated with different drug concentrations. From these measurements, percentage growth inhibition (%GI) and half-maximal inhibitory concentration (IC50) values were calculated.

[3] = test system: T. cruzi trypomastigotes, INC-5 strain; assay: microbe, parasite or virus in culture; assay type: cell-based; conditions: Trypanosoma cruzi; bloodstream trypomastigotes, INC-5 strain; 24 h at 4 °C; read-out: Trypo INC-5 LC50 (half-maximal lytic concentration)
Procedure: (§2) Those compounds with the lowest IC50 values in the epimastigote studies of each strain were evaluated in trypomastigotes. For this purpose, bloodstream trypomastigotes of INC-5 and NINOA strains were used for peritoneal injection into 6−8-week-old CD1 mice. The peak of parasitemia was achieved after 4–6 weeks, at which time parasitised blood samples were obtained by cardiac puncture using sodium heparin as an anticoagulant and diluted to a concentration of 1 × 10^6 trypomastigotes/mL. 10 µL of each of the dilutions of the study compounds and Bzn, with these being placed in a 96-well plate, and 90 µL of infected blood was added, providing a final volume of 100 µL per well. The microplates were incubated at 4 °C for 24 h, and concentrations of 20 µM, 10 µM, and 5 µM of each compound were considered in these experiments. Each evaluation was performed in triplicate. Wells with untreated blood trypomastigotes were used as a negative lysis control and Bzn as a positive control. Then, the degree of lysis of trypomastigotes was determined by their reduction in number using an optical microscope according to the Brener–Pizzi method. For this purpose, 5 μL of blood was placed between a slide and a 13 × 13 coverslip. Mobile trypomastigotes were counted in 15 microscope fields at 40× magnification. Quantification of the degree of lysis for each case was expressed as a percentage considering the number of viable trypomastigotes with respect to the negative control. The half-maximal lytic concentration (LC50) was determined by linear regression. The experiments were carried out in accordance with the recommendations and approval of the local Ethics and Research Committee (Approval number: ENCB/CEI/078/2020).

[4] = test system: T. cruzi trypomastigotes, NINOA strain; assay: microbe, parasite or virus in culture; assay type: cell-based; conditions: Trypanosoma cruzi; bloodstream trypomastigotes, NINOA strain; 24 h at 4 °C; read-out: Trypo NINOA LC50 (half-maximal lytic concentration)
Procedure: as §2

J774 murine macrophages = assay: Cytotoxicity on J774 macrophages (MTT); assay type: cell-based; conditions: J774 macrophages, MTT, 24 h, read-out: J774 IC50
Procedure: Cytotoxicity assays for the compounds selected for their trypanocidal activity were performed on J774 macrophage cells using the MTT method. For this purpose, 50,000 cells/well resuspended in RPMI medium and 2% foetal bovine serum were seeded in a 96-well plate and incubated for 24 h at 37 °C. […] After 24 h of incubation, the existing culture medium was replaced in the plate with fresh culture medium along with […] each of the compound dilutions (100 to 1.25 μM) and Bzn to a final volume of 100 µL per well. This plate was then incubated in 5% CO2 for 24 h at 37 °C. The controls used were cells with medium as a positive control and cells without culture medium as a negative control. After the 24 h incubation, the morphology of the macrophages was observed under a microscope and then the culture medium was removed again and the MTT solution (5 mg/mL) was added. After 1 h incubation at 37 °C, the absorbance at 570 nm was recorded on an Elisa Epoch reader. The following formula was used to calculate the % cytotoxicity: %cytotoxicity = (100 − (mean number of cells with treatment/cells without treatment) × 100).

recombinant TcTR = recombinant TcTR (Trypanosoma cruzi, UniProt P28593); assay: Trypanothione reductase inhibition assay (TS2-dependent NADPH oxidation); assay type: biochemical; conditions: for Ki: mixed-type inhibition, global nonlinear regression
recombinant TcTR, sequence (P28593 whole entry): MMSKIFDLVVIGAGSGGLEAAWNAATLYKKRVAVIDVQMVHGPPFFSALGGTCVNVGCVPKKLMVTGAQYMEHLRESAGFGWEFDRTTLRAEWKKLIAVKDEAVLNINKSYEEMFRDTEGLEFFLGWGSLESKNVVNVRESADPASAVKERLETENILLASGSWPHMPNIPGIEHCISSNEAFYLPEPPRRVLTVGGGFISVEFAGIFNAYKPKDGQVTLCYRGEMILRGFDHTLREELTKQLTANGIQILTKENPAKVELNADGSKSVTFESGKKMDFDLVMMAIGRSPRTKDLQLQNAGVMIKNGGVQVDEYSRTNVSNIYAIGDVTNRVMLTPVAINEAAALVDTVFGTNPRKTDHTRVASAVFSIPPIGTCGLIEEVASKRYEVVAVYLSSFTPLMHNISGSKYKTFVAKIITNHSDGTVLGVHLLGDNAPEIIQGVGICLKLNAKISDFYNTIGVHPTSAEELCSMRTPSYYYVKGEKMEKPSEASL
Procedure: The inhibition of TcTR activity by 7j was evaluated by monitoring the trypanothione disulphide (TS2)-dependent NADPH oxidation by using the assay described before. The reaction mixture contained assay buffer (40 mM HEPES pH 7.4, 1 mM EDTA), recombinant TcTR (88-168 ng/mL), NADPH (the concentration depended on experiment), and different 7j concentrations when required, in a volume of 500 μL. The mixture was incubated at 37 °C for 3 min, and TS2 was added to start the reaction. The absorbance at 340 nm was recorded in real time for 10 min, and the activity was calculated from the slope of the curves as μmol of NADPH oxidised per min (e^340 = 6.22 mM^−1 cm^−1).

[5] = test system: epimastigotes of the Tulahuén strain; parameters: method as in PMID 25127463; conditions: read-out: IC50 against epimastigotes of the Tulahuén strain; cited from earlier work
[6] = test system: Y strain of T. cruzi epimastigote; parameters: method as in doi:10.1039/C5RA10122K; conditions: read-out: IC50 against Y strain of T. cruzi epimastigote; cited from earlier work
[7] = test system: trypomastigote cultures (Y strain); parameters: method as in PMID 28215783; conditions: cited from earlier work
T. cruzi trypomastigotes = test system: T. cruzi trypomastigotes; parameters: method as in PMID 30670432; conditions: cited from earlier work
[8] = test system: T. cruzi epimastigotes, NINOA strain; assay: Growth inhibition of T. cruzi epimastigotes, NINOA strain; assay type: cell-based; conditions: Trypanosoma cruzi, 120 h, epimastigotes, NINOA strain; five days; means of three independent experiments; read-out: Epi NINOA IC50
Procedure: as §1

[9] = alpha of the mixed-type inhibitor equation, replots of slope and 1/v axis intercept vs. 7j

SMILES: Cc1ccc(OC2=C(Cl)C(=O)c3ccccc3C2=O)cc1[N+](=O)[O-] [III]
- IC50 [1]: 9.38 µM
- IC50 (J774 cells): 117 µM

- IC50 ([2]; Trypanosoma cruzi, 120 h): < 1 µM
- IC50 [2]: 0.92 ± 0.01 µM
- α NADPH (recombinant TcTR; [9]): 1.12
- α TS2 (recombinant TcTR; [9]): 0.77
- Ki (recombinant TcTR; NADPH varied, TS2 fixed 200 µM, read-out: Ki 7j vs. NADPH): 18 ± 3.5 µM
- Ki (recombinant TcTR; TS2 varied, NADPH fixed 160 µM, read-out: Ki 7j vs. TS2): 28 ± 4.5 µM
- Type of enzyme inhibition (recombinant TcTR; with respect to both substrates, TS2 and NADPH, Lineweaver-Burk plots): simple mixed-type inhibitor
SMILES: O=C1C(Cl)=C(N2CCC(NC(=O)c3cccc4ccccc34)CC2)C(=O)c2ccccc21 [Compound 7j, N-(1-(3-chloro-1,4-dioxo-1,4-dihydronaphthalen-2-yl)piperidin-4-yl)-1-naphthamide]
- LC50 [3]: 59.7 ± 3.72 µM
- LC50 [4]: 98.1 ± 8.9 µM
- IC50 (J774 murine macrophages): 33 µM
- IC50 (J774 murine macrophages; Mus musculus, J774, 24 h): ~25 µM

SMILES: CCCCCCOc1ccc(NC2=CC(=O)c3ccccc3C2=O)cc1 [I]
- IC50 [5]: 1.72 µM

SMILES: O=C1C=C(Oc2cccc([N+](=O)[O-])c2)C(=O)c2ccccc21 [II, 2-(3-nitrophenoxy)-1,4-naphthoquinone]
- IC50 [6]: 0.02 µM

SMILES: Clc1ccc2nccc(NCCN3CCOCC3)c2c1 [V]
- IC50 [7]: 67.7 µM

SMILES: O=C(Nc1nc(-c2ccccc2)c[nH]1)N1CCN(c2ccc(C(F)(F)F)cc2[N+](=O)[O-])CC1 [VI]
- IC50 (T. cruzi trypomastigotes): 2.2 µM

- IC50 [8]: 8.21 ± 1.8 µM
- IC50 ([2]; Trypanosoma cruzi, 120 h): 42.3 ± 5.8 µM
SMILES: O=C(Cn1ccnc1[N+](=O)[O-])NCc1ccccc1 [Bzn, benznidazole, reference compound]
- LC50 [3]: 85.6 ± 4.23 µM
- LC50 [4]: > 100 µM
- IC50 (J774 murine macrophages; Mus musculus, J774, 24 h): 352 µM
- IC50 [1]: 40.7 µM
- IC50 (J774 cells): 352 µM
